Calls of active or inactive are those of the source. The rule behind the calls is not given here.
Legend:
[1] = molecular target: T1, Protein cereblon/Heat shock protein HSP 90-alpha (Homo sapiens, UniProt P07900+Q96SW2); experiment: PROTAC activity at CRBN/HSP90alpha in human MCF7 cells assessed as induction of HSP90alpha degradation at 0.5 uM incubated for 8 hrs by Western blot analysis; type: cell-based
MCF7 = experiment: Antiproliferative activity against human MCF7 cells assessed as inhibition of cell proliferation incubated for 72 hrs by MTT assay; type: functional, cell-based; conditions: MCF7, 72 h
MDA-MB-231 = experiment: Antiproliferative activity against human MDA-MB-231 cells assessed as inhibition of cell proliferation incubated for 72 hrs by MTT assay; type: functional, cell-based; conditions: MDA-MB-231, 72 h
MX1 = experiment: Antiproliferative activity against human MX1 cells assessed as inhibition of cell proliferation incubated for 72 hrs by MTT assay; type: functional, cell-based; conditions: MX1, 72 h
[2] = molecular target: T2, Protein cereblon/Heat shock protein HSP 90-beta (Homo sapiens) (UniProt P08238+Q96SW2); experiment: PROTAC activity at CRBN/HSP90beta in human MCF7 cells assessed as induction of HSP90beta degradation at 0.5 uM incubated for 8 hrs by Western blot analysis; type: cell-based
MDA-MB-468 = experiment: Antiproliferative activity against human MDA-MB-468 cells assessed as inhibition of cell proliferation incubated for 72 hrs by MTT assay; type: functional, cell-based; conditions: MDA-MB-468, 72 h
[3] = molecular target: T3, Heat shock protein HSP 90-alpha (Homo sapiens, UniProt P07900); experiment: Induction of HSP90alpha degradation in human MCF7 cells at 0.5 uM incubated for 8 hrs by Western blot analysis; type: cell-based
[4] = Toxicity in BALB/c mouse implanted with mouse 4T1 cells assessed as effect on body weight at 50 mg/kg, ip administered twice a week and measured after 20 days; type: organism-based; conditions: in vivo, 480 h, time 20 day
4T1 [5] = experiment: Antitumor activity against mouse 4T1 cells implanted in BALB/c mouse assessed as tumor growth inhibition at 50 mg/kg, ip administered twice a week and measured after 20 days relative to control; type: functional; conditions: 4T1, 480 h, time 20 day, read-out: TGI
4T1 [6] = experiment: Antitumor activity against mouse 4T1 cells implanted in BALB/c mouse assessed as reduction in tumor weight at 50 mg/kg, ip administered twice a week and measured after 20 days; type: functional, organism-based; conditions: time 20.0 day
[7] = molecular target: T3, Heat shock protein HSP 90-alpha; experiment: Induction of HSP90alpha degradation in human MCF7 cells at 0.5 uM incubated for 8 hrs in presence of pomalidomide by Western blot analysis; type: cell-based
[8] = Half-life in rat at 15 mg/kg, ip administered as single dose and measured at 5 to 480 mins by LC-MS analysis; type: ADME, organism-based; conditions: in vivo, time 5-480 min
[9] = molecular target: T1, Protein cereblon/Heat shock protein HSP 90-alpha; experiment: PROTAC activity at CRBN/HSP90alpha in human MCF7 cells assessed as induction of HSP90alpha degradation at 0.5 uM incubated for 8 hrs in presence of AT13387 by Western blot analysis; type: cell-based
[10] = molecular target: T2, Protein cereblon/Heat shock protein HSP 90-beta (Homo sapiens); experiment: PROTAC activity at CRBN/HSP90beta in human MCF7 cells assessed as induction of CDK4 degradation at 0.5 uM incubated for 8 hrs by Western blot analysis; type: cell-based
[11] = molecular target: T1, Protein cereblon/Heat shock protein HSP 90-alpha; experiment: Binding affinity to CRBN/HSP90alpha (unknown origin) assessed as ternary complex formation; type: protein assay
[12] = Cmax in rat at 15 mg/kg, ip administered as single dose and measured at 5 to 480 mins by LC-MS analysis; type: ADME, organism-based; conditions: in vivo, time 5-480 min
[13] = molecular target: T1, Protein cereblon/Heat shock protein HSP 90-alpha; experiment: PROTAC activity at CRBN/HSP90alpha in human MCF7 cells assessed as induction of survivin degradation at 0.5 uM incubated for 8 hrs by Western blot analysis; type: cell-based
[14] = AUC(0 to infinity) in rat at 15 mg/kg, ip administered as single dose and measured at 5 to 480 mins by LC-MS analysis; type: ADME, organism-based; conditions: in vivo, time 5-480 min
[15] = molecular target: T1, Protein cereblon/Heat shock protein HSP 90-alpha; experiment: PROTAC activity at CRBN/HSP90alpha in human MCF7 cells assessed as induction of HSP90alpha degradation incubated for 8 hrs by Western blot analysis; type: cell-based
[16] = molecular target: T1, Protein cereblon/Heat shock protein HSP 90-alpha; experiment: PROTAC activity at CRBN/HSP90alpha in human MCF7 cells assessed as induction of HSP90alpha degradation at 0.5 uM incubated for 8 hrs in presence of pomalidomide by Western blot analysis; type: cell-based
[17] = Tmax in rat at 15 mg/kg, ip administered as single dose and measured at 5 to 480 mins by LC-MS analysis; type: ADME, organism-based; conditions: in vivo, time 5-480 min
[18] = molecular target: T1, Protein cereblon/Heat shock protein HSP 90-alpha; experiment: PROTAC activity at CRBN/HSP90alpha in human MCF7 cells assessed as induction of HSP90alpha degradation by measuring maximal efficacy at 0.1 to 5 uM incubated for 8 hrs by Western blot analysis relative to control; type: cell-based; conditions: dose 0.1-5 µM
[19] = Toxicity in BALB/c mouse implanted with mouse 4T1 cells assessed as effect on body weight at 60 mg/kg, ip administered daily for 20 days; type: organism-based; conditions: in vivo, 480 h, time 20 day
4T1 [20] = experiment: Antitumor activity against mouse 4T1 cells implanted in BALB/c mouse assessed as reduction in tumor weight at 60 mg/kg, ip administered daily for 20 days; type: functional, organism-based; conditions: time 20.0 day
[21] = molecular target: T1, Protein cereblon/Heat shock protein HSP 90-alpha; experiment: PROTAC activity at CRBN/HSP90alpha in human MCF7 cells assessed as induction of HSP90alpha degradation at 0.5 uM incubated for 8 hrs in presence of MLN4924 by Western blot analysis; type: cell-based
[22] = molecular target: T1, Protein cereblon/Heat shock protein HSP 90-alpha; experiment: PROTAC activity at CRBN/HSP90alpha in human MCF7 cells assessed as induction of HSP90alpha degradation by measuring maximal efficacy at high concentration incubated for 8 hrs by Western blot analysis; type: cell-based
[23] = AUCall in rat at 15 mg/kg, ip administered as single dose and measured at 5 to 480 mins by LC-MS analysis; type: ADME, organism-based; conditions: in vivo, time 5-480 min
[24] = molecular target: T1, Protein cereblon/Heat shock protein HSP 90-alpha; experiment: PROTAC activity at CRBN/HSP90alpha in human MCF7 cells assessed as induction of HSP90alpha degradation at 0.5 uM incubated for 8 hrs in presence of MG132 by Western blot analysis; type: cell-based
4T1 [25] = experiment: Antitumor activity against mouse 4T1 cells implanted in BALB/c mouse assessed as tumor growth inhibition at 60 mg/kg, ip administered daily for 20 days relative to control; type: functional; conditions: 4T1, 480 h, time 20 day, read-out: TGI
[26] = Toxicity in BALB/c mouse implanted with mouse 4T1 cells assessed as mortality at 60 mg/kg, ip administered daily for 20 days; type: organism-based; conditions: in vivo, 480 h, time 20 day

CC(C)c1cc(C(=O)N2Cc3ccc(CN4CCN(C(=O)CNc5cccc6c5CN(C5CCC(=O)NC5=O)C6=O)CC4)cc3C2)c(O)cc1O (stereo unspecified)
Activity [1]: inactive | IC50 (MCF7): 2.03 µM | IC50 (MDA-MB-231): 7.69 µM | IC50 (MX1): 3.46 µM | Activity [2]: inactive | IC50 (MDA-MB-468): 5.1 µM

CC(C)c1cc(C(=O)N2Cc3ccc(CN4CCN(CCCCCCCC(=O)Nc5cccc6c5C(=O)N(C5CCC(=O)NC5=O)C6=O)CC4)cc3C2)c(O)cc1O (stereo unspecified)
Activity [1]: inactive | IC50 (MCF7): 6.03 µM | IC50 (MDA-MB-231): 62.8 µM | IC50 (MX1): 4.94 µM | Activity [2]: inactive | IC50 (MDA-MB-468): 30.6 µM

CC(C)c1cc(C(=O)N2Cc3ccc(CN4CCN(CCCC(=O)Nc5cccc6c5C(=O)N(C5CCC(=O)NC5=O)C6=O)CC4)cc3C2)c(O)cc1O (stereo unspecified)
Activity [1]: inactive | IC50 (MCF7): 0.02 µM | IC50 (MDA-MB-231): 2.04 µM | IC50 (MX1): 0.22 µM | Activity [2]: inactive | IC50 (MDA-MB-468): 3.03 µM

CC(C)c1cc(C(=O)N2Cc3ccc(CN4CCN(CCCCCCC(=O)Nc5cccc6c5C(=O)N(C5CCC(=O)NC5=O)C6=O)CC4)cc3C2)c(O)cc1O (stereo unspecified)
Activity [1]: inactive | IC50 (MCF7): 0.92 µM | IC50 (MDA-MB-231): 12.1 µM | IC50 (MX1): 0.31 µM | Activity [2]: inactive | IC50 (MDA-MB-468): 3.67 µM

Nc1cccc2c1C(=O)N(C1CCC(=O)NC1=O)C2=O (stereo unspecified) [POMALIDOMIDE]
IC50 (MCF7): > 100 µM | IC50 (MDA-MB-231): > 100 µM | Activity [3]: inactive | IC50 (MX1): > 100 µM | IC50 (MDA-MB-468): > 100 µM

CC(C)c1cc(C(=O)N2Cc3ccc(CN4CCN(C(=O)CCCNc5cccc6c5CN(C5CCC(=O)NC5=O)C6=O)CC4)cc3C2)c(O)cc1O (stereo unspecified)
Activity [1]: inactive | IC50 (MCF7): 3.42 µM | IC50 (MDA-MB-231): 7.87 µM | IC50 (MX1): 1.19 µM | Activity [2]: inactive | IC50 (MDA-MB-468): 25.8 µM

Nc1cccc2c1CN(C1CCC(=O)NC1=O)C2=O (stereo unspecified) [LENALIDOMIDE]
IC50 (MCF7): > 100 µM | IC50 (MDA-MB-231): > 100 µM | IC50 (MX1): > 100 µM | IC50 (MDA-MB-468): > 100 µM

CC(C)c1cc(C(=O)N2Cc3ccc(CN4CCN(CCCCC(=O)Nc5cccc6c5C(=O)N(C5CCC(=O)NC5=O)C6=O)CC4)cc3C2)ccc1O (stereo unspecified)
IC50 (MCF7): 48.2 µM | IC50 (MDA-MB-231): 94.2 µM | IC50 (MX1): 76.6 µM | IC50 (MDA-MB-468): 87.1 µM

CC(C)c1cc(C(=O)N2Cc3ccc(CN4CCN(C)CC4)cc3C2)c(O)cc1O [ONALESPIB]
IC50 (MCF7): 0.84 µM | IC50 (MDA-MB-231): 2.6 µM | Activity [3]: inactive | IC50 (MX1): 0.5 µM | Activity [4]: Toxic | inhibition in vivo at 50 mg/kg (4T1 [5]): 43.2% | Activity (4T1 [6]): Active | Activity [7]: inactive | IC50 (MDA-MB-468): 3.31 µM

CC(C)c1cc(C(=O)N2Cc3ccc(CN4CCN(CCCCCCC(=O)Nc5cccc6c5C(=O)N(C5CCC(=O)NC5=O)C6=O)CC4)cc3C2)ccc1O (stereo unspecified)
Activity [1]: Active | half-life [8]: 2.5 h | IC50 (MCF7): 8.93 µM | Activity [9]: inactive | IC50 (MDA-MB-231): 51.5 µM | Activity [10]: inactive | Activity [11]: Active | Cmax [12]: 302 ng/mL | IC50 (MX1): 12 µM | Activity [13]: Active | AUC(0-inf) [14]: 758 ng·h/mL | DC50 [15]: 0.295 µM | Activity [16]: inactive | Tmax [17]: 0.6 h | Emax [18]: 66.4% | Activity [2]: inactive | Activity [19]: Non-Toxic | Activity (4T1 [20]): Active | Activity [21]: inactive | Activity [22]: inactive | IC50 (MDA-MB-468): 16.5 µM | AUC [23]: 703 ng·h/mL | Activity [24]: inactive | inhibition in vivo at 60 mg/kg (4T1 [25]): 54% | Activity [26]: Non-Toxic

CC(C)c1cc(C(=O)N2Cc3ccc(CN4CCN(CCCCCCCC(=O)Nc5cccc6c5C(=O)N(C5CCC(=O)NC5=O)C6=O)CC4)cc3C2)ccc1O (stereo unspecified)
IC50 (MCF7): 18.5 µM | IC50 (MDA-MB-231): > 100 µM | IC50 (MX1): 63 µM | IC50 (MDA-MB-468): 35.9 µM

Source: ChEMBL document CHEMBL5625235, “Discovery of X10g as a selective PROTAC degrader of Hsp90α protein for treating breast cancer” (Eur J Med Chem, 2023)
